assay: RP, Waters ACQUITY UPLC HSS T3, 150 × 2 mm, 1.7 µm, 30 °C, 0.4 mL/min, estimated dead time 0.75 min; A: water + 0.2% formic acid; B: 2% water + 98% acetonitrile + 0.2% formic acid; gradient (min/%B) 0/0 2.5/0 7.5/10 10/100 12/100 18/0 25/0; settings: stereoisomer not certain

O=C[C@H](O)[C@H](O)CO [D-erythrose] and O=C(O)[C@H](O)[C@@H](O)[C@H](O)CO [D-xylonic acid] are within 1.5-fold of each other in LC retention time: 1.67 min for the first, 1.69 min for the second.

Compared with O=C(O)CCCCC1CCSS1 [(R)-lipoic acid], O=C(O)CCCCCCC(=O)O [suberic acid] is 4.1-fold higher in LC retention time: 2.28 min for the first, 9.43 min for the second.

First: NC(Cc1c[nH]c2ccccc12)C(=O)O (stereo not given) [tryptophan]
Second: NC(Cc1cnc[nH]1)C(=O)O (stereo not given) [histidine]
The LC retention time of the first is 6.2-fold higher: 8.87 min for the first, 1.43 min for the second.

Going from O=C(COP(=O)(O)O)Cc1cnc[nH]1 [3-(imidazol-4-yl)-2-oxopropyl dihydrogen phosphate] to O=C(CO)COP(=O)(O)O [glycerone phosphate], the LC retention time rises from 2.09 min to 9.3 min (4.4-fold).

First: CC(C)CC(=O)C(=O)O [4-methyl-2-oxopentanoic acid]
Second: CC(=O)C(=O)O [pyruvic acid]
The LC retention time of the first is 2.1-fold higher: 9.46 min for the first, 4.6 min for the second.

OCC1OC(OC2OC(CO)C(O)C(O)C2O)C(O)C(O)C1O (stereo not drawn) [alpha,alpha-trehalose] and O=P(O)(O)OCC1OC(CO)(OC2OC(CO)C(O)C(O)C2O)C(O)C1O (stereo not given) [sucrose 6(F)-phosphate] are within 1.5-fold of each other in LC retention time: 1.58 min for the first, 1.81 min for the second.

First: NC(=O)NC1NC(=O)NC1=O (stereo not given) [allantoin]
Second: O=C(O)c1nc2[nH]c(=O)[nH]c(=O)c2[nH]1 [xanthine-8-carboxylic acid]
The LC retention time of the first is 2.7-fold lower: 1.76 min for the first, 4.71 min for the second.

O=C(O)C1OC(OC2C(C(=O)O)OC(O)C(O)C2O)C(O)C(O)C1O (stereo not given) [digalacturonic acid] and O=C(O)C1OC(O)C(O)C(O)C1O (stereo not given) [Glucuronic Acid] are within 1.5-fold of each other in LC retention time: 1.58 min for the first, 1.61 min for the second.

Compared with O=C(CO)CO [glycerone], O=C(O)C(O)CO (stereo not given) [glyceric acid] is 1.6-fold lower in LC retention time: 3.02 min for the first, 1.92 min for the second.

O=P(O)(O)OC(CO)CO [glycerol 2-phosphate] and C[C@](O)(CO)[C@H](O)COP(=O)(O)O [2-C-methyl-D-erythritol 4-(dihydrogen phosphate)] are within 1.5-fold of each other in LC retention time: 1.53 min for the first, 1.64 min for the second.

First: O=C(O)CCC(=O)O [succinic acid]
Second: O=C(O)CCC(=O)C(=O)O [2-oxoglutaric acid]
The LC retention time of the first is 1.8-fold higher: 5.35 min for the first, 3.04 min for the second.

Compared with O=C(O)c1ccco1 [2-furoic acid], O=C(O)c1ccc(O)cc1 [4-hydroxybenzoic acid] is 2.2-fold higher in LC retention time: 4.46 min for the first, 9.88 min for the second.

O[C@@H]1c2c(sc3ccccc23)C=C[C@@H]1O (relative stereo) [cis-1,2-dihydroxy-1,2-dihydrodibenzothiophene] and CC1(C)SC2C(NC(=O)C(C(=O)O)c3ccccc3)C(=O)N2C1C(=O)O (stereo not given) [carbenicillin] are within 1.5-fold of each other in LC retention time: 1.64 min for the first, 1.73 min for the second.

O=C(O)/C=C/c1ccc(O[C@@H]2O[C@H](CO)[C@@H](O)[C@H](O)[C@H]2O)cc1 [4-O-beta-D-glucosyl-4-coumaric acid] and O=C(O)C=Cc1ccc(O)c(OC2OC(CO)C(O)C(O)C2O)c1 (stereo not given) [Caffeic acid 3-glucoside] are within 1.5-fold of each other in LC retention time: 9.11 min for the first, 8.96 min for the second.

Compared with COc1c2ccoc2c(OC)c2oc(=O)ccc12 [isopimpinellin], COC(=O)[C@@H](N)Cc1ccc(O)cc1 [methyl L-tyrosinate] is 6.4-fold higher in LC retention time: 1.66 min for the first, 10.7 min for the second.

CS(=O)(=O)CCC(N)C(=O)O (stereo not given) [methionine sulfone] and NC(CCC(=O)O)C(=O)O (stereo not given) [glutamic acid] are within 1.5-fold of each other in LC retention time: 1.9 min for the first, 1.62 min for the second.

O=C(C=Cc1ccc(O)c(O)c1)OC1CC(O)(C(=O)O)CC(O)C1O (stereo not given) [chlorogenic acid] and O=C(O)C=Cc1ccc(O)cc1 [4-coumaric acid] are within 1.5-fold of each other in LC retention time: 9.09 min for the first, 8.99 min for the second.

O=C(O)C=CC(=O)O [fumaric acid] and O=C(O)CC(=O)O [malonic acid] are within 1.5-fold of each other in LC retention time: 2.46 min for the first, 2.64 min for the second.

C#CC1(OC(C)=O)CCC2C3CCC4=CC(=O)CCC4C3CCC21C (stereo not given) [norethindrone acetate] and CC(=O)OC(C)(C)C1CCC2(C)COC3(C)C=COC23C1 (stereo not given) [AC1L9CQ2] are within 1.5-fold of each other in LC retention time: 10.5 min for the first, 11.6 min for the second.

Compared with Nc1ncnc2c1ncn2[C@@H]1O[C@H](CSCC[C@H]([NH3+])C(=O)[O-])[C@@H](O)[C@H]1O [S-adenosyl-L-homocysteine], Nc1ncnc2c1ncn2C1OC(CO)C(O)C1O (stereo not given) [adenosine] is 3.1-fold higher in LC retention time: 1.92 min for the first, 6.01 min for the second.

Going from O=C(O)C=C(CC(=O)O)C(=O)O [cis-aconitic acid] to O=C(O)CC(O)C(=O)O (stereo not given) [malic acid], the LC retention time falls from 4.46 min to 2.44 min (1.8-fold).

Going from O=C(O)C(=O)[C@H](O)COP(=O)(O)O [(R)-3-hydroxy-2-oxo-4-phosphonooxybutanoic acid] to O=C(O)[C@H](O)[C@@H](O)[C@H](O)[C@H](O)COP(=O)(O)O [6-phospho-D-gluconic acid], the LC retention time falls from 9.3 min to 1.55 min (6-fold).

C=CC=C(O)C(=O)O [cis-2-hydroxypenta-2,4-dienoic acid] and N[C@@H](CC(=O)O)C(=O)O [L-aspartic acid] are within 1.5-fold of each other in LC retention time: 1.68 min for the first, 1.53 min for the second.

CC1=CC2=CC(C)CC23OC(=C(C)C3=O)CC(C)(C)C=CC1=O (stereo not given) [jatrophone] and CC(C=CC1(O)C(C)=CC(=O)CC1(C)C)=CC(=O)O (single isomer, unassigned; (+)) [(+)-abscisic acid] are within 1.5-fold of each other in LC retention time: 10.2 min for the first, 10.1 min for the second.

CCCCCCCCCCCCOCCOCCOCCOCCOCCO [pentaethylene glycol monododecyl ether] and O=C(O)CCCCCCCC(=O)O [azelaic acid] are within 1.5-fold of each other in LC retention time: 11.8 min for the first, 9.61 min for the second.

N#CCC(N)C(=O)O (stereo not given) [3-cyanoalanine] and NC(=O)C[C@H](N)C(=O)O [L-asparagine] are within 1.5-fold of each other in LC retention time: 1.51 min for the first, 1.48 min for the second.

CC(C(=O)[O-])=C(C)C(=O)[O-] [dimethylmaleate(2-)] and O=C([O-])C(O)C(O)C(O)C(O)C(=O)[O-] (stereo not given) [glucarate(1-)] are within 1.5-fold of each other in LC retention time: 1.67 min for the first, 1.57 min for the second.

Going from O=c1[nH]cnc2nc[nH]c12 [hypoxanthine] to Nc1nc2c(ncn2C2OC(CO)C(O)C2O)c(=O)[nH]1 (stereo not given) [guanosine], the LC retention time rises from 1.75 min to 6.32 min (3.6-fold).

Going from CC(=O)OC1CC(C)C(C=O)C2(O)C1C(C)(C)CC2(C)C=O (stereo not given) [botrydial] to CC(=O)NC=CSC1=C(C(=O)O)N2C(=O)C(C(C)OS(=O)(=O)O)C2C1 (stereo not given) [epithienamycin E], the LC retention time falls from 13.5 min to 4.43 min (3-fold).

First: O=c1ccn(C2OC(CO)C(O)C2O)c(=O)[nH]1 (stereo not given) [uridine]
Second: O=C1O[C@H](CO)[C@@H](O)[C@H](O)[C@H]1O [D-glucono-1,5-lactone]
The LC retention time of the first is 2.9-fold higher: 5.79 min for the first, 2.02 min for the second.

Compared with O=C1CC[C@@H](C(=O)O)N1 [5-oxo-L-proline], O=C(O)C1CCCCN1 (stereo not given) [pipecolic acid] is 1.7-fold lower in LC retention time: 4.72 min for the first, 2.79 min for the second.

C=CC#CC#CC1=CC=C(C#CC)SS1 [thiarubrine A] and OCC=Cc1ccc(O)cc1 [4-hydroxycinnamyl alcohol] are within 1.5-fold of each other in LC retention time: 1.97 min for the first, 1.62 min for the second.

C[N+](C)(C)CC(=O)[O-] [glycine betaine] and C[C@H]([NH3+])C(=O)[O-] [L-alanine] are within 1.5-fold of each other in LC retention time: 1.57 min for the first, 1.44 min for the second.

Going from O=P([O-])([O-])OP(=O)([O-])[O-] [diphosphate(4-)] to CC[C@H](C)[C@H](N)C(=O)O [L-isoleucine], the LC retention time rises from 1.47 min to 5.34 min (3.6-fold).

OCC1OC(OC2(COC3(CO)OC(CO)C(O)C3O)OC(CO)C(O)C2O)C(O)C(O)C1O (stereo not given) [1-kestose] and O=C(O)[C@H](O)[C@@H](O)[C@H](O)[C@H](O)CO [D-gluconic acid] are within 1.5-fold of each other in LC retention time: 1.88 min for the first, 1.61 min for the second.
